Experiments:
Format in all cases: cell-based
PaGTR3 = target: T1, PaGTR3 (Phyllotreta armoraciae, UniProt A0A858Z6Y2); experiment: uptake into transfected High Five insect cells, LC-MS/MS; details: equimolar mixture of seven glucosinolates, 200 µM, PBS pH 5.5, 1 h, 27 °C
T1 construct: gene GTR3; full-length ORF in pIEx-4, C-terminal 6xHis tag, expressed in High Five insect cells
T1 sequence (A0A858Z6Y2 1-478): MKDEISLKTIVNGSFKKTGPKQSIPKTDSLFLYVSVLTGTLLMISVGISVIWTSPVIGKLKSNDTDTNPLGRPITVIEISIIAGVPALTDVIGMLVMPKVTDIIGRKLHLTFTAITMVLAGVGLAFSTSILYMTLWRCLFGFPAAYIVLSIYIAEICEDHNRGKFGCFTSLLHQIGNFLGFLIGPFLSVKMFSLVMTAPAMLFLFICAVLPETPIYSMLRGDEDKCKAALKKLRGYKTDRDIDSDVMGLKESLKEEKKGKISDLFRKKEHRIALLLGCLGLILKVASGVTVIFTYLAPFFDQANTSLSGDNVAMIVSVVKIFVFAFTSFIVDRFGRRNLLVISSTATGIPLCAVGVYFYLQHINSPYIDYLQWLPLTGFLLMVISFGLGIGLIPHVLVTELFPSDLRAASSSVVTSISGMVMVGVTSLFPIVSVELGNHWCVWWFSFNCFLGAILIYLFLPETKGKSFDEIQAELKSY

PaGTR1 = target: T2, PaGTR1 (Phyllotreta armoraciae, UniProt A0A858Z6R5); experiment: uptake into PaGTR1-expressing Xenopus oocytes, LC-MS/MS; details: Kulori buffer with MES pH 6.0, 10 min, room temperature; proton-dependent import; read-out: apparent Km
T2 construct: gene GTR1; full-length ORF without stop codon in pNB1u, C-terminal HA tag, cRNA expressed in Xenopus laevis oocytes
T2 sequence (A0A858Z6R5 entry or part of it): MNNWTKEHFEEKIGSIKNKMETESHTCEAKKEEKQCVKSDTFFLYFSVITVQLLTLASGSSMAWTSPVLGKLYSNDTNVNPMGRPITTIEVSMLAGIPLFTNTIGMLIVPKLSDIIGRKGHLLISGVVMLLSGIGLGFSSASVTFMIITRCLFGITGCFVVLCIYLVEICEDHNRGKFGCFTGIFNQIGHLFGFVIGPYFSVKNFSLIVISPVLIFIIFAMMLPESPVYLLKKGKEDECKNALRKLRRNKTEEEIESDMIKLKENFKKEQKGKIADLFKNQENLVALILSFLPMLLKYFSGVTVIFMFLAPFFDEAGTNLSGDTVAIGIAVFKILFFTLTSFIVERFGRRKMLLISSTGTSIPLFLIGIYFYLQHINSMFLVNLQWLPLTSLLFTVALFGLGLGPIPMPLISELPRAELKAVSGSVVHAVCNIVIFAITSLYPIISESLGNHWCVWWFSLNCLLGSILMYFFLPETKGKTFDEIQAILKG

PaGTR2 = target: T3, PaGTR2 (Phyllotreta armoraciae, UniProt A0A858Z6M7); experiment: uptake into transfected High Five insect cells, LC-MS/MS; details: equimolar mixture of seven glucosinolates, 200 µM, PBS pH 5.5, 1 h, 27 °C
T3 construct: gene GTR2; full-length ORF in pIEx-4, C-terminal 6xHis tag, expressed in High Five insect cells
T3 sequence (A0A858Z6M7 1-504): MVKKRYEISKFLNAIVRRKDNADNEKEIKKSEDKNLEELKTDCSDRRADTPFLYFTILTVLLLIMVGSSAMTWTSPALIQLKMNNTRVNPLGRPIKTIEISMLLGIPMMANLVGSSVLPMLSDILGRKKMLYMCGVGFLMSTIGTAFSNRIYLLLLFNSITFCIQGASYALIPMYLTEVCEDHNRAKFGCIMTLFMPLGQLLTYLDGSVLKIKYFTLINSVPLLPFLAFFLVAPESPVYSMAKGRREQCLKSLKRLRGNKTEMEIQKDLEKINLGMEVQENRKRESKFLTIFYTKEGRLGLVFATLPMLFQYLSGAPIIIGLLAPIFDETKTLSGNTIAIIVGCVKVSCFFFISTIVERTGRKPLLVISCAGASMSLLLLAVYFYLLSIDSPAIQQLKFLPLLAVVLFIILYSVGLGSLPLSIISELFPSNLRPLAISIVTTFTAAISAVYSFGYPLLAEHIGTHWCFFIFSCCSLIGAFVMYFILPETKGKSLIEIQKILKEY

O=S(=O)(O)O/N=C(/Cc1c[nH]c2ccccc12)S[C@@H]1O[C@H](CO)[C@@H](O)[C@H](O)[C@H]1O [I3M glucosinolate]
uptake into transfected High Five insect cells, LC-MS/MS (PaGTR3): PaGTR2 and PaGTR3 expression was analyzed because the recombinant transporters also used I3M glucosinolate | Km (PaGTR1): 50.6 ± 4.1 µM | uptake into transfected High Five insect cells, LC-MS/MS (PaGTR2): PaGTR2 and PaGTR3 expression was analyzed because the recombinant transporters also used I3M glucosinolate
